The text below walks through data of US10722514B2 (FLX Bio, Inc., priority 2017, dated 2020).

The test has as its target T1, recombinant full-length USP7 (Homo sapiens, UniProt Q93009).
T1 construct: A 25 μl reaction volume containing recombinant full-length USP7 (62 pM)
In words: USP7-mediated ubiquitin-rhodamine cleavage assay. Conditions: recombinant full-length USP7 62 pM, ubiquitin-rhodamine 100 nM, 1 hour reaction at room temperature. The format is biochemical. The essentials: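 Rhodamine fluorescence read-out after acetic acid stop; IC50 by 4-parameter nonlinear regression. Enzyme at 62 pM, substrate ubiquitin-rhodamine 100 nM final, 1 h at room temperature in the dark, after 30 min compound preincubation. Buffer: HEPES pH 7.3, NaCl, TCEP, BSA; 1% DMSO.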

Where [1] appears, read: 30-minute incubation with compound, read-out: Potency: USP7 IC50.
[2] abbreviates: 30-minute pre-incubation, read-out: Potency (USP7 IC50).

The structures appear in SMILES notation. pIC50: −log10 of the molar value. Structures can show the parent of a compound that is named as a salt. Where two headings read alike, the source gives them in different places.

T1 sequence (Q93009 whole entry): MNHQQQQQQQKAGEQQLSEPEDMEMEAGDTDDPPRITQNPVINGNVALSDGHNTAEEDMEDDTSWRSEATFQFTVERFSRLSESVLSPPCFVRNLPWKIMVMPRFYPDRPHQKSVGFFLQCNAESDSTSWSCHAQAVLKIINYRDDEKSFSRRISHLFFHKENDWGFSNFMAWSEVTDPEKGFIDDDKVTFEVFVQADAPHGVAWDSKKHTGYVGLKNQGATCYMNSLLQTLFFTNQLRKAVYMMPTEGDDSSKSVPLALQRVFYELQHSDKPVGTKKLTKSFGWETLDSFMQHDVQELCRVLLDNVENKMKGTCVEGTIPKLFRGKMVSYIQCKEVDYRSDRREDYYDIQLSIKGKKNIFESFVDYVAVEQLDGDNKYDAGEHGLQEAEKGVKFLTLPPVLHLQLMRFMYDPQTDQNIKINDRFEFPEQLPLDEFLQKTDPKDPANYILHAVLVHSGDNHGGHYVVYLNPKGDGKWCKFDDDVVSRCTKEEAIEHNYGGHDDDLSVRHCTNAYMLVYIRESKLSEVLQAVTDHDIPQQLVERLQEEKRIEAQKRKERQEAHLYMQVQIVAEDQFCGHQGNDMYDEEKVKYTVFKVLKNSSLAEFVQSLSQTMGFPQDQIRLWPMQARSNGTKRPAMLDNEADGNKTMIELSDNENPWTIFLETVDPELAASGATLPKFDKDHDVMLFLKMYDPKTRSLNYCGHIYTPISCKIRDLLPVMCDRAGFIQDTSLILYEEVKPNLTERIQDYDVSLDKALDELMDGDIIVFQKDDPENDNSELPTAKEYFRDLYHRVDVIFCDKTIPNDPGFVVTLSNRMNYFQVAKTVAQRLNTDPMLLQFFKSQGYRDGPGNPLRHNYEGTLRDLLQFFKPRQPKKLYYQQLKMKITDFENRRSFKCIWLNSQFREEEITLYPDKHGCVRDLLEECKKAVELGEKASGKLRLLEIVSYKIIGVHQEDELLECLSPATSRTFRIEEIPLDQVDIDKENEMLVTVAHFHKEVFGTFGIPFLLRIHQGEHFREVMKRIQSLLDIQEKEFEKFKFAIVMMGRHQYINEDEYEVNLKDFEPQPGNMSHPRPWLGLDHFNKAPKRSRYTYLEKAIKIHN

With `CN[C@H]1CC[C@H](Oc2c(C)cc(Cl)cc2-c2ccnc3cc(CN4C(=O)CCC4=O)sc23)CC1` [Example 213, 1-((7-(5-Chloro-3-methyl-2-(((1r,4r)-4-(methylamino)cyclohexyl)oxy)phenyl)thieno[3,2-b]pyridin-2-yl)methyl)pyrrolidine-2,5-dione], under setting [1], the pIC50 (commonly the IC50 on a negative log10 scale, so that one unit is a factor of ten) is more than 6.00.

Consider `Cc1cc(Cl)cc(-c2ccnc3c(F)c(CN4C(=O)CCC4=O)sc23)c1O[C@@H]1CNC[C@@H]1F` [Example 65, 1-((7-(5-Chloro-2-(((3R,4S)-4-fluoropyrrolidin-3-yl)oxy)-3-methylphenyl)-3-fluorothieno[3,2-b]pyridin-2-yl)methyl)pyrrolidine-2,5-dione], for which, under setting [1], the pIC50 was more than 6.00. For the compound `Cc1cc(Cl)cc(-c2ccnc3cc(Cn4c(=O)ccn(CC(F)(F)F)c4=O)sc23)c1O[C@H]1CCNC[C@@H]1C` [Example 629, 3-[[7-[5-chloro-3-methyl-2-[[(3S,4S)-3-methyl-4-piperidyl]oxy]phenyl]thieno[3,2-b]pyridin-2-yl]methyl]-1-(2,2,2-trifluoroethyl)pyrimidine-2,4-dione], the pIC50 under setting [2] was more than 6.00. Same read-out and setting: with `Cc1cc(Cl)cc(-c2ncnc3cc(Cn4c(=O)ccn(CC(F)(F)F)c4=O)sc23)c1O[C@@H]1CCN(C)C[C@@H]1C` [Example 528, 3-[[4-[5-chloro-2-[[(3S,4R)-1,3-dimethyl-4-piperidyl]oxy]-3-methyl-phenyl]thieno[3,2-d]pyrimidin-6-yl]methyl]-1-(2,2,2-trifluoroethyl)pyrimidine-2,4-dione] the figure was more than 6.00. With `Cc1cc(Cl)cc(-c2ccnc3cc(CO)sc23)c1O[C@@H]1CN[C@H](CO)C1` [Example 77, (7-(5-Chloro-2-(((3S,5S)-5-(hydroxymethyl)pyrrolidin-3-yl)oxy)-3-methylphenyl)thieno[3,2-b]pyridin-2-yl)methanol], the pIC50 under setting [1] was 4.52 to 5.00. Same read-out and setting: with `Cc1cc(Cl)cc(-c2ccnc3cc(CN4C(=O)C5CCCN5C4=O)sc23)c1OC1CCNCC1` (stereo not shown) [Example 218, 2-((7-(5-Chloro-3-methyl-2-(piperidin-4-yloxy)phenyl)thieno[3,2-b]pyridin-2-yl)methyl)tetrahydro-1H-pyrrolo[1,2-c]imidazole-1,3(2H)-dione] the figure was 5.00 to 6.00. Regarding `Cc1cc(Cl)cc(-c2ccnc3cc(Cn4c(=O)ccn(C)c4=O)sc23)c1O[C@@H]1CCN(C)C[C@@H]1C` [Example 457, 3-[[7-[5-chloro-2-[[(3S,4R)-1,3-dimethyl-4-piperidyl]oxy]-3-methyl-phenyl]thieno[3,2-b]pyridin-2-yl]methyl]-1-methyl-pyrimidine-2,4-dione], under setting [2], the pIC50 was more than 6.00. In the case of `Cc1cc(Cl)cc(-c2ccnc3cc(CN4C(=O)C5CCCC5C4=O)sc23)c1O[C@@H]1CNC[C@@H]1F` (stereo partly drawn) [Example 141, 2-((7-(5-Chloro-2-(((3R,4S)-4-fluoropyrrolidin-3-yl)oxy)-3-methylphenyl)thieno[3,2-b]pyridin-2-yl)methyl)tetrahydrocyclopenta[c]pyrrole-1,3(2H,3aH)-dione], the pIC50 under setting [1] was more than 6.00. On the same count and under the same terms, then `Cc1cc([N+](=O)[O-])cc(-c2ccnc3cc(Cn4c(=O)ccn(CC(F)(F)F)c4=O)sc23)c1OC1CCN(C(C)(C)C)CC1` [Example 347, 3-[[7-[2-[(1-tert-butyl-4-piperidyl)oxy]-3-methyl-5-nitro-phenyl]thieno[3,2-b]pyridin-2-yl]methyl]-1-(2,2,2-trifluoroethyl)pyrimidine-2,4-dione], with more than 6.00. Same read-out and setting: then `Cc1cc(C(F)(F)F)cc(-c2ccnc3cc(CN4C(=O)CCC4=O)sc23)c1OC1CCNCC1` [Example 253, 1-((7-(3-Methyl-2-(piperidin-4-yloxy)-5-(trifluoromethyl)phenyl)thieno[3,2-b]pyridin-2-yl)methyl)pyrrolidine-2,5-dione], with more than 6.00. Turning to `Cc1cc(Cl)cc(-c2ccnc3cc(Cn4c(=O)ccn(CC(F)(F)F)c4=O)sc23)c1OC1CCNC1(C)C` (stereo not shown) [Example 344, 3-[[7-[5-chloro-2-(2,2-dimethylpyrrolidin-3-yl)oxy-3-methyl-phenyl]thieno[3,2-b]pyridin-2-yl]methyl]-1-(2,2,2-trifluoroethyl)pyrimidine-2,4-dione], the pIC50 under setting [1] was more than 6.00.

On to `Cc1cc(Cl)cc(-c2ccnc3cc(Cn4c(=O)ccn(C)c4=O)sc23)c1OC1CC(NCCO)C1` (stereo not shown) [Example 532, 3-[[7-[5-chloro-2-[3-(2-hydroxyethylamino)cyclobutoxy]-3-methyl-phenyl]thieno[3,2-b]pyridin-2-yl]methyl]-1-methyl-pyrimidine-2,4-dione; 2,2,2-trifluoroacetic acid], for which the pIC50 under setting [2] was more than 6.00. With `Cc1cc(Cl)cc(-c2ccnc3cc(Cn4c(=O)ccn(C)c4=O)sc23)c1OC1CCCN(C)C1` (stereo not shown) [Example 503, 3-[[7-[5-chloro-3-methyl-2-[(1-methyl-3-piperidyl)oxy]phenyl]thieno[3,2-b]pyridin-2-yl]methyl]-1-methyl-pyrimidine-2,4-dione], the pIC50 under setting [2] is more than 6.00.

With `O=C1CCC(=O)N1Cc1cc2nccc(-c3cc(C(F)(F)F)cc(Cl)c3O[C@@H]3CNC[C@@H]3F)c2s1` [Example 54, 1-((7-(3-Chloro-2-(((3R,4S)-4-fluoropyrrolidin-3-yl)oxy)-5-(trifluoromethyl)phenyl)thieno[3,2-b]pyridin-2-yl)methyl)pyrrolidine-2,5-dione], the pIC50 under setting [1] is more than 6.00. Regarding `Cc1cc(Cl)cc(-c2ccnc3cc(Cn4c(=O)ccn(CC(F)(F)F)c4=O)sc23)c1OC1CC2(COCCN2)C1` (stereo not shown) [Example 697, 3-[[7-[5-chloro-3-methyl-2-(8-oxa-5-azaspiro[3.5]nonan-2-yloxy)phenyl]thieno[3,2-b]pyridin-2-yl]methyl]-1-(2,2,2-trifluoroethyl)pyrimidine-2,4-dione], the pIC50 (30-minute incubation, read-out: Potency (USP7 IC50)) is more than 6.00. For `Cc1cc(Cl)cc(-c2ccnc3cc(Cn4c(=O)ccn(CC(F)(F)F)c4=O)sc23)c1O[C@@H]1CNC[C@H]1C` [Example 628, 3-[[7-[5-chloro-3-methyl-2-[(3S,4R)-4-methylpyrrolidin-3-yl]oxy-phenyl]thieno[3,2-b]pyridin-2-yl]methyl]-1-(2,2,2-trifluoroethyl)pyrimidine-2,4-dione], the pIC50 under setting [2] was more than 6.00. As for `Cc1cc(Cl)cc(-c2ncnc3cc(CN4C(=O)CCCC4=O)sc23)c1O[C@H]1CCCNC1` [Example 260, (S)-1-((4-(5-Chloro-3-methyl-2-(piperidin-3-yloxy)phenyl)thieno[3,2-d]pyrimidin-6-yl)methyl)piperidine-2,6-dione], the pIC50 under setting [1] was more than 6.00. Still for that read-out and setting: with `Cc1cc(Cl)cc(-c2ccnc3cc(CN4C(=O)C5CC5C4=O)sc23)c1OC1CN2CCC1CC2` (stereo not shown) [Example 319, 3-[[7-(5-chloro-3-methyl-2-quinuclidin-3-yloxy-phenyl)thieno[3,2-b]pyridin-2-yl]methyl]-3-azabicyclo[3.1.0]hexane-2,4-dione; 2,2,2-trifluoroacetic acid] the figure was more than 6.00; with `CCC(O)c1cc2nccc(-c3cc(Cl)cc(C)c3O[C@H]3CCCN(C)C3)c2s1` (stereo partly drawn) [Example 186, 1-(7-(5-Chloro-3-methyl-2-(((S)-1-methylpiperidin-3-yl)oxy)phenyl)thieno[3,2-b]pyridin-2-yl)propan-1-ol], 4.52 to 5.00. The same measure, in the same setting: with `Cc1cc(Cl)cc(-c2ncnc3cc(CN4C(=O)C5C(C4=O)C5(C)C)sc23)c1O[C@@H]1CCNC[C@H]1F` (stereo partly drawn) [Example 352, 3-[[4-[5-chloro-2-[[(3R,4R)-3-fluoro-4-piperidyl]oxy]-3-methyl-phenyl]thieno[3,2-d]pyrimidin-6-yl]methyl]-6,6-dimethyl-3-azabicyclo[3.1.0]hexane-2,4-dione; 2,2,2-trifluoroacetic acid] the figure was more than 6.00. Regarding `Cc1cc(Cl)cc(-c2ccnc3cc(Cn4c(=O)ccn(CC(F)(F)F)c4=O)sc23)c1OC1CC(N2CCOC[C@H]2C)C1` (stereo partly drawn) [Example 657, 3-[[7-[5-chloro-3-methyl-2-[3-[(3R)-3-methylmorpholin-4-yl]cyclobutoxy]phenyl]thieno[3,2-b]pyridin-2-yl]methyl]-1-(2,2,2-trifluoroethyl)pyrimidine-2,4-dione; 2,2,2-trifluoroacetic acid], the pIC50 under setting [2] was more than 6.00. For `Cc1cc(Cl)cc(-c2ccnc3cc(Cn4c(=O)ccn(C(C)C)c4=O)sc23)c1OC1CN2CCC1C2` [Example 590, 3-[[7-[2-[[(1S,3S,4R)-1-azabicyclo[2.2.1]heptan-3-yl]oxy]-5-chloro-3-methyl-phenyl]thieno[3,2-b]pyridin-2-yl]methyl]-1-isopropyl-pyrimidine-2,4-dione], under setting [2], the pIC50 is more than 6.00. For `Cc1cc(Cl)cc(-c2ncnc3cc(CN4C(=O)C5CC5C4=O)sc23)c1O[C@@H]1CCNC[C@H]1F` (stereo partly drawn) [Example 309, 3-[[4-[5-chloro-2-[[(3R,4R)-3-fluoro-4-piperidyl]oxy]-3-methyl-phenyl]thieno[3,2-d]pyrimidin-6-yl]methyl]-3-azabicyclo[3.1.0]hexane-2,4-dione dihydrochloride], under setting [1], the pIC50 was more than 6.00. On the same count and under the same terms, with `CCOC(=O)NN(Cc1cc2nccc(-c3cc(Cl)cc(C)c3O[C@@H]3CCNC[C@@H]3C)c2s1)C(=O)OCC` [Example 402, ethyl N-[[7-[5-chloro-3-methyl-2-[[(3S,4R)-3-methyl-4-piperidyl]oxy]phenyl]thieno[3,2-b]pyridin-2-yl]methyl]-N-(ethoxycarbonylamino)carbamate] the figure was more than 6.00; with `Cc1cc(Cl)cc(-c2ccnc3cc(Cn4c(=O)ccn(C)c4=O)sc23)c1O[C@@H]1CNC[C@@H]1F` [Example 151, 3-((7-(5-Chloro-2-(((3R,4S)-4-fluoropyrrolidin-3-yl)oxy)-3-methylphenyl)thieno[3,2-b]pyridin-2-yl)methyl)-1-methylpyrimidine-2,4(1H,3H)-dione], more than 6.00.
